In patent publication US10537104B2, “Insecticide mixtures comprising loline alkaloids” (SYNGENTA PARTICIPATIONS AG, priority 2016, dated 2020):

Columns and labels:
Myzus persicae = experiment: Tests against Myzus persicae: sprayed sunflower leaf discs, mortality; assay type: in vivo; conditions: 6 days after infestation
From the text: (§1) A synergistic effect exists whenever the action of an active ingredient combination is greater than the sum of the actions of the individual components. The action to be expected E for a given active ingredient combination obeys the so-called COLBY formula and can be calculated as follows (COLBY, S. R. “Calculating synergistic and antagonistic responses of herbicide combination”. Weeds, Vol. 15, pages 20-22 1967):
(§2) According to Colby, the expected (additive) action of active ingredients A+B using p+q ppm of active ingredient is
(§3) If the action actually observed O is greater than the expected action E, then the action of the combination is super-additive, i.e. there is a synergistic effect. In mathematical terms, synergism corresponds to a positive value for the difference of (O-E). In the case of purely complementary addition of activities (expected activity), said difference (O-E) is zero. A negative value of said difference (O-E) signals a loss of activity compared to the expected activity.
Component (A1) is a mixture of NAL, NFL and NANL in a weight ratio of about approximately 1:4:2. Stock solutions of thiamethoxam and flonicamid were prepared respectively by dissolving the technical active ingredient in DMSO. The aqueous test solutions were prepared by mixing together the appropriate stock solutions to the desired concentrations.
Tests Against Myzus persicae
Sunflower leaf discs were placed on agar in a 24-well microtiter plate and sprayed with aqueous test solutions prepared from DMSO stock solutions. After drying, the leaf discs were infested with an aphid population of mixed ages. The samples were assessed for mortality 6 days after infestation.

Thrips tabaci = experiment: Tests against Thrips tabaci: sprayed sunflower leaf discs, mortality; assay type: in vivo; conditions: 6 days after infestation
From the text: as §1, §2, §3
Component (A1) is a mixture of NAL, NFL and NANL in a weight ratio of about approximately 1:4:2. […]
Sunflower leaf discs were placed on agar in 24-well microtiter plates and sprayed with aqueous test solutions prepared from DMSO stock solutions. […] The samples were assessed for mortality 6 days after infestation.

| SMILES | % Mortality Measured (Myzus persicae; flonicamid 3.125 ppm alone) [%] | % Mortality Measured (Myzus persicae; flonicamid 6.25 ppm alone) [%] | % Mortality Measured (Myzus persicae; flonicamid 12.5 ppm alone) [%] | % Mortality Measured (Thrips tabaci; flonicamid 100 ppm alone) [%] | % Mortality Measured (Thrips tabaci; flonicamid 200 ppm alone) [%] | mortality at 0.4 ppm (Myzus persicae; Myzus persicae, foliar, 144 h, thiamethoxam 0.4 ppm alone, read-out: % Mortality Measured) [%] | mortality at 0.8 ppm (Myzus persicae; Myzus persicae, foliar, 144 h, thiamethoxam 0.8 ppm alone, read-out: % Mortality Measured) [%] | mortality at 1.6 ppm (Myzus persicae; Myzus persicae, foliar, 144 h, thiamethoxam 1.6 ppm alone, read-out: % Mortality Measured) [%] |
| --- | --- | --- | --- | --- | --- | --- | --- | --- |
| N#CCNC(=O)c1cnccc1C(F)(F)F [Flonicamid, flonicamid] | 0 | 65 | 90 | 0 | 0 |  |  |  |
| CN1COCN(Cc2cnc(Cl)s2)/C1=N\[N+](=O)[O-] [Thiamethoxam, thiamethoxam] |  |  |  |  |  | 0 | 0 | 45 |
